# Target: T1, mouse sEH (Mus musculus, UniProt P34914)
# T1 sequence (P34914 1-554): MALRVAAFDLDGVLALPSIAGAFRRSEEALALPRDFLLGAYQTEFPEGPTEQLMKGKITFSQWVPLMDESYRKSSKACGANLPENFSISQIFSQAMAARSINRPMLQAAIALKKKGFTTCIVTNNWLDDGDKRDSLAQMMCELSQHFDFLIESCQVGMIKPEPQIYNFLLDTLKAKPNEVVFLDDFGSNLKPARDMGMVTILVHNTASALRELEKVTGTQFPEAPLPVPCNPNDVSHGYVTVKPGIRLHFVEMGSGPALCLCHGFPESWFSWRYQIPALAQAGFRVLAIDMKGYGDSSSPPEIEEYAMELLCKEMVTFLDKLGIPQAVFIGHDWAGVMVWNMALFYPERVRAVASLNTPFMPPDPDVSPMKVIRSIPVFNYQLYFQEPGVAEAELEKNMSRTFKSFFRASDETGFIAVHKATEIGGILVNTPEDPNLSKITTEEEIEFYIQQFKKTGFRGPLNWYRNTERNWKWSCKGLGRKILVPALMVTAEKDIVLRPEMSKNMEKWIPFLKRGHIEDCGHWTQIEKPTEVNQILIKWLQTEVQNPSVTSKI
# Test: fluorogenic substrate hydrolase assay
# Type: biochemical
# Settings: recombinant purified enzyme, average of triplicates
row,Structure (SMILES),IC50 [nM]
1,Cc1ncsc1-c1ccc(CNC(=O)[C@@H]2C[C@@H](O)CN2C(=O)[C@@H](NC(=O)CCCCCCC(=O)N2CCC(NC(=O)Nc3ccc(OC(F)(F)F)cc3)CC2)C(C)(C)C)cc1 [compound 12],3.1
2,O=C1CCC(N2C(=O)c3cccc(NCCCCCC(=O)N4CCC(NC(=O)Nc5ccc(OC(F)(F)F)cc5)CC4)c3C2=O)C(=O)N1 (stereo not drawn) [compound 9],1.4
3,O=C1CCC(N2Cc3c(NCCOCCOCCOCCNC(=O)c4ccc(O[C@H]5CC[C@H](NC(=O)Nc6ccc(OC(F)(F)F)cc6)CC5)cc4)cccc3C2=O)C(=O)N1 (stereo partly drawn) [compound 1],1.6
4,O=C1CCC(N2C(=O)c3ccc(NCCOCCOCCOCCOCCNC(=O)c4ccc(O[C@H]5CC[C@H](NC(=O)Nc6ccc(OC(F)(F)F)cc6)CC5)cc4)cc3C2=O)C(=O)N1 (stereo partly drawn) [compound 2],0.64
5,"O=C(COc1cccc2c1C(=O)N(C1CCC(=O)NC1=O)C2=O)NCCOCCOCCOCCOCCNC(=O)c1ccc(O[C@H]2CC[C@H](NC(=O)Nc3ccc(OC(F)(F)F)cc3)CC2)cc1 (stereo partly drawn) [1a, compound 1a]",4
6,O=C1CCC(N2C(=O)c3cccc(NCCOCCOCCC(=O)N4CCC(NC(=O)Nc5ccc(OC(F)(F)F)cc5)CC4)c3C2=O)C(=O)N1 (stereo not drawn) [compound 10],3

# Next, values leading:
row,IC50 [nM],Structure (SMILES)
1,4.7,O=C(COc1ccc(C2CCC(=O)NC2=O)cc1)NCCOCCOCCOCCOCCNC(=O)c1ccc(O[C@H]2CC[C@H](NC(=O)Nc3ccc(OC(F)(F)F)cc3)CC2)cc1 (stereo partly drawn) [compound 3]
2,6,O=C(COc1ccc(N2CCC(=O)NC2=O)cc1)NCCOCCOCCOCCOCCNC(=O)c1ccc(O[C@H]2CC[C@H](NC(=O)Nc3ccc(OC(F)(F)F)cc3)CC2)cc1 [compound 4]
3,9.3,Cc1ccc(C(=O)NCCOCCOCCOCCOCCNC(=O)c2ccc(O[C@H]3CC[C@H](NC(=O)Nc4ccc(OC(F)(F)F)cc4)CC3)cc2)cc1N1CCC(=O)NC1=O [compound 5]

# — paper doi:10.1101/2024.07.23.604814v1 (biorxiv, 2024)
